Results taken from patent publication US9708259B2 (Hoffmann-La Roche Inc., priority 2013, dated 2017).
Where a chain is given by its changes, count along the chain named. Where two headings read alike, the source gives them in different places.

Columns and labels:
human M1 = target: T1, human M1 (Homo sapiens, UniProt P11229); assay: M1 PAM assay (FLIPR intracellular calcium), human M1; assay type: cell-based
T1 construct: expressed in transfected cells; host or cells: CHO cells
T1 sequence (P11229 1-460): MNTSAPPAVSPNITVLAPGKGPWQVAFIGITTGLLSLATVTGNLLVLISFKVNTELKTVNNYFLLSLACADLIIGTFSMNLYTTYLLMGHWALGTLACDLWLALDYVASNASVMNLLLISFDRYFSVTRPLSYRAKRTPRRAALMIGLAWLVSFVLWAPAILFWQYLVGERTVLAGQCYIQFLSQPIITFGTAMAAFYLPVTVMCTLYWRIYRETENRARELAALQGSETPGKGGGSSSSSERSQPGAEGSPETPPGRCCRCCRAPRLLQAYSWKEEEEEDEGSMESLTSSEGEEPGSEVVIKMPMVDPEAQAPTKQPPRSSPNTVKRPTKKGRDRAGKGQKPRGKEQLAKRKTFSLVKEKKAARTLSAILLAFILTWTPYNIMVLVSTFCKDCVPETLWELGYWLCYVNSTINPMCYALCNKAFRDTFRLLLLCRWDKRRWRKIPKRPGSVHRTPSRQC
Outline: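 CHO cells expressing M1, Fluo-4AM-loaded, in HEPES/probenecid HBSS pH 7.4, 1% DMSO final. Compounds pre-incubated 2 min for agonist activity versus 30 nM acetylcholine control. For PAM activity, acetylcholine EC20 added after the 2 min pre-incubation, then 2 min more before FLIPR intracellular Ca2+ read.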

ratM1 = target: T2, ratM1 (Rattus norvegicus, UniProt P08482); assay: M1 PAM assay (FLIPR intracellular calcium), rat M1; assay type: cell-based
T2 construct: expressed in transfected cells; host or cells: CHO cells (stated generally for the assay, not specifically for rat M1)
T2 sequence (P08482 1-460): T1 sequence (P11229 1-460) with A5V, T254S, P309S, R320K, A337G, I413V

[1] = CHO human M1 cells, FLIPR Ca2+, with EC20 of acetylcholine, first value of the cell, read-out: hM1 EC50
[2] = rat M1, FLIPR Ca2+, second value of the cell, read-out: ratM1 EC50

**Q.** For `Cn1cc(-c2ccc(Cn3cc(C(=O)N[C@@H]4CCCC(F)(F)[C@H]4O)c4c(F)cccc43)c(F)c2)cn1` [Example 102, N-((1R,2S)-3,3-difluoro-2-hydroxycyclohexyl)-4-fluoro-1-(2-fluoro-4-(1-methyl-1H-pyrazol-4-yl)benzyl)-1H-indole-3-carboxamide], which EC50 (human M1; [1]) is on record?
**A.** 29 nM

**Q.** And the EC50 (ratM1; [2])?
**A.** 88 nM

**Q.** What does the source list for `Cn1cc(-c2ccc(Cn3nc(C(=O)N[C@H]4CCCC[C@@H]4O)c4c(F)ccc(F)c43)cn2)cn1` [Example 75, 4,7-difluoro-N-((1S,2S)-2-hydroxycyclohexanol)-1-((6-(1-methyl-1H-pyrazol-4-yl)yridine-3-yl)methyl)-1H-indazole-3-carboxamide]?
**A.** EC50 (human M1; [1]): 40.1 nM; EC50 (ratM1; [2]): 46 nM

**Q.** With `CNC(=O)c1ccc(Cn2cc(C(=O)NC3CCCC(F)(F)C3)c3c(F)cccc32)cc1F` (stereo not shown) [Example 130, N-(3,3-difluorocyclohexyl)-4-fluoro-1-(3-fluoro-4-(methylcarbamoyl)benzyl)-1H-indole-3-carboxamide] as the compound, how does the EC50 (human M1; [1]) read?
**A.** 34 nM

**Q.** What about the EC50 (ratM1; [2]) of the same compound?
**A.** 58 nM

**Q.** Which results are given for `Cn1cc(-c2ccc(Cn3nc(C(=O)N[C@H]4CCCC[C@@H]4O)c4c(F)ccc(F)c43)c(F)c2)cn1` [Example 72, 4,7-difluoro-1-(2-fluoro-4-(1-methyl-1H-pyrazol-4-yl)benzyl)-N-((1S,2S)-2-hydroxycyclohexyl)-1H-indazole-3-carboxamide]?
**A.** EC50 (human M1; [1]): 42.8 nM; EC50 (ratM1; [2]): 133 nM

**Q.** Which EC50 (human M1; [1]) does the source give for `CNC(=O)c1ccc(Cn2cc(C(=O)NC3CCOC(C)(C)C3)c3c(F)cccc32)cc1` (stereo not shown) [Example 119, N-(2,2-dimethyloxan-4-yl)-4-fluoro-1-[[4-(methylcarbamoyl)phenyl]methyl]indole-3-carboxamide] here?
**A.** 6 nM

**Q.** And the EC50 (ratM1; [2])?
**A.** 12 nM

**Q.** `O=C(N[C@H]1CCOC[C@@H]1O)c1cn(Cc2ccc(-c3nccs3)cc2)c2cccc(F)c12` [Example 79, 4-fluoro-N-((3R,4S)-3-hydroxytetrahydro-2H-pyran-4-yl)-1-(4-(thiazol-2-yl)benzyl)-1H-indole-3-carboxamide] was tested. Which EC50 (human M1; [1]) did it give?
**A.** 16.8 nM

**Q.** What about the EC50 (ratM1; [2]) of the same compound?
**A.** 25.6 nM

**Q.** Which EC50 (human M1; [1]) does the source give for `Cn1cc(-c2ccc(Cn3cc(C(=O)N[C@H]4CCOC[C@@H]4O)c4c(F)ccc(C5CC5)c43)cc2)cn1` [Example 106, 7-cyclopropyl-4-fluoro-N-((3R,4S)-3-hydroxytetrahydro-2H-pyran-4-yl)-1-(4-(1-methyl-1H-pyrazol-4-yl)benzyl)-1H-indole-3-carboxamide] here?
**A.** 189 nM

**Q.** And the EC50 (ratM1; [2])?
**A.** 187 nM

**Q.** Which EC50 (human M1) does the source give for `Cc1ccc(F)c2c(C(=O)NC3CCOCC3)cn(Cc3ccc4c(cnn4C)c3)c12` [Example 134, 4-fluoro-7-methyl-1-((1-methyl-1H-indazol-5-yl)methyl)-N-(tetrahydro-2H-pyran-4-yl)-1H-indole-3-carboxamide] here?
**A.** 25 nM

**Q.** And the EC50 (ratM1)?
**A.** 76 nM

**Q.** Which EC50 (human M1; [1]) does the source give for `Cn1cc(-c2ccc(Cn3cc(CC(=O)N[C@H]4CCOC[C@@H]4O)c4c(F)cccc43)c(F)c2)cn1` [Example 92, 2-[4-Fluoro-1-[[2-fluoro-4-(1-methylpyrazol-4-yl)phenyl]methyl]indol-3-yl]-N-[(3R,4S)-3-hydroxyoxan-4-yl]acetamide] here?
**A.** 35 nM

**Q.** What about the EC50 (ratM1; [2]) of the same compound?
**A.** 57 nM

**Q.** `Cn1cc(-c2ccc(Cn3cc(C(=O)N[C@H]4CCCC[C@@H]4O)c4c(F)cccc43)c(F)c2)cn1` [Example 1] was tested. Which EC50 (human M1; [1]) did it give?
**A.** 5.64 nM

**Q.** And the EC50 (ratM1; [2])?
**A.** 62.6 nM

**Q.** For `Cc1cn(-c2ccc(Cn3cc(C(=O)N[C@H]4CCCC[C@@H]4O)c4c(F)c(F)ccc43)cc2)cn1` [Example 60, 4,5-difluoro-N-((1S,2S)-2-hydroxycyclohexyl)-1-(4-(4-methyl-1H-imidazol-1-yl)benzyl)-1H-indole-3-carboxamide], which EC50 (human M1; [1]) is on record?
**A.** 101 nM

**Q.** And the EC50 (ratM1; [2])?
**A.** 183 nM

**Q.** `Cn1cc(-c2ccc(Cn3cc(C(=O)NC4CCOCC4)c4c(F)cccc43)cc2)cn1` [Example 65, Fluoro-1-(4-(1-methyl-1H-pyrazol-4-yl)benzyl)-N-(tetrahydro-2H-pyran-4-yl)-1H-indole-3-carboxamide] was tested. Which EC50 (human M1; [1]) did it give?
**A.** 32.4 nM

**Q.** What about the EC50 (ratM1; [2]) of the same compound?
**A.** 59.9 nM

**Q.** For `Cn1cc(-c2ccc(Cn3cc(C(=O)N[C@H]4CCOC[C@@H]4O)c4c(F)cccc43)c(F)c2)cn1` (mixture of isomers) [Example 6, 4-fluoro-1-(2-fluoro-4-(1-methyl-1H-pyrazol-4-yl)benzyl)-N-((3R,4RS)-3-hydroxytetrahydro-2H-pyran-4-yl)-1H-indole-3-carboxamide], which EC50 (human M1; [1]) is on record?
**A.** 70 nM

**Q.** What about the EC50 (ratM1; [2]) of the same compound?
**A.** 147 nM

**Q.** How did the EC50 (human M1; [1]) turn out when `Cn1cc(-c2ccc(Cn3cc(C(=O)N[C@H]4CCC[C@H]4O)c4c(F)cccc43)c(F)c2)cn1` [Example 24, 4-fluoro-1-(2-fluoro-4-(1-methyl-1H-pyrazol-4-yl)benzyl)-N-((1S,2R)-2-hydroxycyclopentyl)-1H-indole-3-carboxamide] was run?
**A.** 46.3 nM

**Q.** And the EC50 (ratM1; [2])?
**A.** 84.5 nM

**Q.** How did the EC50 (human M1; [1]) turn out when `O=C(N[C@H]1CCCC[C@@H]1O)c1cn(Cc2ccc(-n3ccnc3)nc2)c2cccc(F)c12` [Example 142, 1-((6-(1H-imidazol-1-yl)pyridin-3-yl)methyl)-4-fluoro-N-((1S,2S)-2-hydroxycyclohexyl)-1H-indole-3-carboxamide] was run?
**A.** 75 nM

**Q.** What about the EC50 (ratM1; [2]) of the same compound?
**A.** 210 nM

**Q.** What does the source list for `O=C(N[C@H]1CCCC[C@@H]1O)c1cn(Cc2ccc(-c3ncccn3)cc2)c2cccc(F)c12` [Example 135, 4-fluoro-N-((1S,2S)-2-hydroxycyclohexyl)-1-(4-(pyrimidin-2-yl)benzyl)-1H-indole-3-carboxamide]?
**A.** EC50 (human M1; [1]): 97 nM; EC50 (ratM1; [2]): 384 nM

**Q.** Which results are given for `Cn1ncc2cc(Cn3cc(C(=O)NC4CCOCC4)c4c(F)ccc(F)c43)ccc21` [Example 94, 4,7-difluoro-1-((1-methyl-1H-indazol-5-yl)methyl)-N-(tetrahydro-2H-pyran-4-yl)-1H-indole-3-carboxamide]?
**A.** EC50 (human M1): 66 nM; EC50 (ratM1): 141 nM

**Q.** Which EC50 (human M1; [1]) does the source give for `Cn1cc(-c2ccc(Cn3cc(C(=O)N[C@H]4CCCC(F)(F)[C@@H]4O)c4c(F)cccc43)c(F)c2)cn1` [Example 103, N-((1S,2R)-3,3-difluoro-2-hydroxycyclohexyl)-4-fluoro-1-(2-fluoro-4-(1-methyl-1H-pyrazol-4-yl)benzyl)-1H-indole-3-carboxamide] here?
**A.** 7 nM

**Q.** What about the EC50 (ratM1; [2]) of the same compound?
**A.** 32 nM

**Q.** Which EC50 (human M1) does the source give for `O=C(N[C@H]1CCCC[C@@H]1O)c1cn(Cc2ccccc2)c2cccc(F)c12` [Example 47, 1-benzyl-4-fluoro-N-((1S,2S)-2-hydroxycyclohexyl)-1H-indole-3-carboxamide] here?
**A.** 118 nM

**Q.** What about the EC50 (ratM1) of the same compound?
**A.** 393 nM

**Q.** Which results are given for `O=C(NC1CCOCC1)c1cn(Cc2ccc(-c3nc[nH]n3)cc2)c2cccc(F)c12` [Example 157, 1-(4-(1H-1,2,4-triazol-3-yl)benzyl)-4-fluoro-N-(tetrahydro-2H-pyran-4-yl)-1H-indole-3-carboxamide]?
**A.** EC50 (human M1; [1]): 95 nM; EC50 (ratM1; [2]): 117 nM

**Q.** How did the EC50 (human M1; [1]) turn out when `CNC(=O)c1ccc(Cn2cc(C(=O)NC3CCC(F)(F)CC3)c3c(F)cccc32)cc1` [Example 117, N-(4,4-difluorocyclohexyl)-4-fluoro-1-[[4-(methylcarbamoyl)phenyl]methyl]indole-3-carboxamide] was run?
**A.** 14 nM

**Q.** What about the EC50 (ratM1; [2]) of the same compound?
**A.** 29 nM

**Q.** With `O=C(N[C@H]1CCOC[C@@H]1O)c1cn(CC2CCN(c3ccccn3)CC2)c2cccc(F)c12` [Example 136, 4-fluoro-N-((3R,4S)-3-hydroxytetrahydro-2H-pyran-4-yl)-1-((1-(pyridin-2-yl)piperidin-4-yl)methyl)-1H-indole-3-carboxamide] as the compound, how does the EC50 (human M1; [1]) read?
**A.** 134 nM

**Q.** And the EC50 (ratM1; [2])?
**A.** 428 nM

**Q.** Which EC50 (human M1) does the source give for `COc1ccc(F)c2c(C(=O)NC3CCOCC3)cn(Cc3ccc4c(cnn4C)c3)c12` [Example 154, 4-fluoro-7-methoxy-1-((1-methyl-1H-indazol-5-yl)methyl)-N-(tetrahydro-2H-pyran-4-yl)-1H-indole-3-carboxamide] here?
**A.** 272 nM

**Q.** What about the EC50 (ratM1) of the same compound?
**A.** 837 nM

**Q.** Which EC50 (human M1; [1]) does the source give for `COc1ccc(F)c2c(C(=O)NC3CCOCC3)cn(Cc3ccc(-c4cnn(C)c4)cc3F)c12` [Example 152, 4-fluoro-1-(2-fluoro-4-(1-methyl-1H-pyrazol-4-yl)benzyl)-7-methoxy-N-(tetrahydro-2H-pyran-4-yl)-1H-indole-3-carboxamide] here?
**A.** 260 nM

**Q.** And the EC50 (ratM1; [2])?
**A.** 609 nM

**Q.** What does the source list for `O=C(N[C@H]1CCCC[C@@H]1O)c1cn(Cc2ccc(-c3cncnc3)cc2)c2cccc(F)c12` [Example 158, 4-Fluoro-N-((1S,2S)-2-hydroxycyclohexyl)-1-(4-(pyrimidin-5-yl)benzyl)-1H-indole-3-carboxamide]?
**A.** EC50 (human M1; [1]): 23 nM; EC50 (ratM1; [2]): 61 nM

**Q.** With `N#Cc1ccc(Cn2cc(C(=O)N[C@H]3CCOC[C@@H]3O)c3c(F)cccc32)cc1` (racemic) [Example 16, 1-(4-cyanobenzyl)-4-fluoro-N-((3RS,4SR)-3-hydroxytetrahydro-2H-pyran-4-yl)-1H-indole-3-carboxamide] as the compound, how does the EC50 (human M1) read?
**A.** 237 nM

**Q.** And the EC50 (ratM1)?
**A.** 337 nM
